# Columns and labels:
# full length KDM5A enzyme = full length KDM5A enzyme (Homo sapiens (Human), UniProt P29375); assay: KDM5 Enzyme Assay (KDM5A HTRF); type: biochemical; settings: 2 nM full length KDM5A, 100 nM H3K4Me3 peptide, 1 uM 2-OG, 30 min room temperature
# Outline: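 KDM5A demethylase activity was assessed by HTRF using in-house expressed and purified full length human KDM5A at 2 nM with 100 nM biotinylated H3K4Me3 peptide and 1 uM 2-OG. The 10 uL reaction also held 100 uM Fe^2+, 500 uM ascorbate, 50 mM HEPES pH 7.0, 0.01% Triton-X 100, 2 mM DTT and 0.25% DMSO. Detection used Eu-labeled H3K4me1-2 antibody and streptavidin-XL665, read on an Envision reader.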
# [1] = test system: H3K4Me3 mark level in PC9 cells; assay: KDM5 Cell Assay (H3K4Me3 mark level, PC9 HTRF); type: cell-based; settings: Homo sapiens, PC-9, 120 hours at 37° C.
# Protocol: PC9 cells were seeded in a 384 well plate (2000 cells/well) with a test compound and incubated for 120 hours at 37° C. H3K4Me3 mark level was assessed using HTRF reagents from CisBio. Briefly, media was removed and cells were lysed in 20 μL of Epigeneous Cell Histone lysis buffer C for 45 min at 26° C., shaking. 10 μL of 4 μg/mL acceptor antibody (H3K4me3-d2) and 10 μL of 1.2 μg/mL donor antibody (Total H3-K) in Cell Histone detection buffer were added and the mixture was incubated at 26° C. for 1 hour. Assay plate was read subsequently on Envision (Perkin Elmer). Each compound was run in duplicate. Data were normalized to DMSO treated wells as the low response and EC50's were calculate using a four-parameter fit.
# full length KDM5A enzyme, sequence (P29375 whole entry): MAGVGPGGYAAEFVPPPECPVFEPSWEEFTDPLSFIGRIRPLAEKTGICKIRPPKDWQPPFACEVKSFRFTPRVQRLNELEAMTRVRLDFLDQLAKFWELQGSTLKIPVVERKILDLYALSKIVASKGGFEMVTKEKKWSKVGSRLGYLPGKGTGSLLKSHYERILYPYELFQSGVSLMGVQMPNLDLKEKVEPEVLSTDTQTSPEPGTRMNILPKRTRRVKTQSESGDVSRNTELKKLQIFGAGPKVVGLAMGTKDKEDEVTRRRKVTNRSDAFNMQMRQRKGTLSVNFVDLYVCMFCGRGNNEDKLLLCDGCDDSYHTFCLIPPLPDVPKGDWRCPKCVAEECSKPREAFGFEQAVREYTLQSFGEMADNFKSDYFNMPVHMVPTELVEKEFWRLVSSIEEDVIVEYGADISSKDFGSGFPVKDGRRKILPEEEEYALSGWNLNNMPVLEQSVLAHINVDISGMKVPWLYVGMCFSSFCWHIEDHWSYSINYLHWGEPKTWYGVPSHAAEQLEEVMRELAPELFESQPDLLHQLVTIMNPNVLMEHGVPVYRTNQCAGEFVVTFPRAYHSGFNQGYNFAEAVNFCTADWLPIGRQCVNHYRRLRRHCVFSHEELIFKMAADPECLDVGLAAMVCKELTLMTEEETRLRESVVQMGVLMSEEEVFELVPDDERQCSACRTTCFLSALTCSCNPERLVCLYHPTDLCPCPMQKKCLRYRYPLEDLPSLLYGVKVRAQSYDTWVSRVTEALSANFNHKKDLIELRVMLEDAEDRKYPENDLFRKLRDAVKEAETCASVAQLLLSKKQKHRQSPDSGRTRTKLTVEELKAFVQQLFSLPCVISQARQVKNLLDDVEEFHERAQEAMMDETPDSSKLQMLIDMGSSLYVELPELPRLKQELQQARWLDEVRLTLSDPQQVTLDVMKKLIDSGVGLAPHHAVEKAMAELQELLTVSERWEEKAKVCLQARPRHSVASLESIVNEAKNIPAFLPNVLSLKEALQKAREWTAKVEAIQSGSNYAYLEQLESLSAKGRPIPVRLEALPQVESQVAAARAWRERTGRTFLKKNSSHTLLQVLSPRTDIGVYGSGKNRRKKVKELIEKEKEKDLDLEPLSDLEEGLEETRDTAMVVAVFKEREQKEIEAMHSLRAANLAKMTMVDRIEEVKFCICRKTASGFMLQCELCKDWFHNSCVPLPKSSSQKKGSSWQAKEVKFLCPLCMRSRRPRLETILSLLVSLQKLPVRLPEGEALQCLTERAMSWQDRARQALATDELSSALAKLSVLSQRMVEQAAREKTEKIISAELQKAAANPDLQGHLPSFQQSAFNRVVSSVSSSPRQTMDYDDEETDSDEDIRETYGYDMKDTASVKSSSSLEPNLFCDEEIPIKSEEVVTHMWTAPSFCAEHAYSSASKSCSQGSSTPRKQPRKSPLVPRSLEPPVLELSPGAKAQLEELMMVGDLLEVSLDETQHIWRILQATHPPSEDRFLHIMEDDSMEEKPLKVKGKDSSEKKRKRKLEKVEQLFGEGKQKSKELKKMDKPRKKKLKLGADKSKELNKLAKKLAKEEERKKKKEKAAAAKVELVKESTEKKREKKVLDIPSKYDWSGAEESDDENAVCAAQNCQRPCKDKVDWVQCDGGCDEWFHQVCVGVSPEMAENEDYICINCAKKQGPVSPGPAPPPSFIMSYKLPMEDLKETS
SMILES,IC50 (full length KDM5A enzyme),EC50 [1]
CCC1(C(=O)NC2CCN(C(=O)c3cc(C(C)C)n[nH]3)C2)CC1 (stereo not drawn) [Example 141],0.14 nM,6.5 nM
CC(C)c1cc(C(=O)N2CCC(NC(=O)c3ccccc3OCc3ccccc3)C2)[nH]n1 (stereo not drawn) [Example 136],0.054 nM,2.5 nM
"Cc1cccn(C2CCN(C(=O)c3cc(C(C)C)n[nH]3)C2)c1=O (stereo not drawn) [Example 40, 1-(1-(3-Isopropyl-1H-pyrazole-5-carbonyl)pyrrolidin-3-yl)-3-methylpyridin-2(1H)-one]",0.058 nM,3.7 nM
"CC(C)c1cc(C(=O)N2CC[C@@H](n3cccc(C4CC4)c3=O)C2)[nH]n1 [Example 41, (R)-3-cyclopropyl-1-(1-(3-isopropyl-1H-pyrazole-5-carbonyl)pyrrolidin-3-yl)pyridin-2(1H)-one]",0.051 nM,6.8 nM
CC(C)c1cc(C(=O)N2CC[C@@H](NC(=O)[C@@H]3C[C@H]3F)C2)[nH]n1 [Example 232],0.14 nM,5 nM
CCCOc1ccccc1C(=O)NC1CCN(C(=O)c2cc(C(C)C)n[nH]2)C1 (stereo not drawn) [Example 180],0.065 nM,3.2 nM
"CC(C)c1cc(C(=O)N2CCC(N3Cc4ccccc4C3=O)C2)[nH]n1 (stereo not drawn) [Example 30, 2-(1-(3-Isopropyl-1H-pyrazole-5-carbonyl)pyrrolidin-3-yl)isoindolin-1-one]",0.14 nM,15 nM
"CNC(=O)NC1CCN(C(=O)c2cc(C(C)C)n[nH]2)C1 (stereo not drawn) [Example 34, 1-(1-(3-Isopropyl-1H-pyrazole-5-carbonyl)pyrrolidin-3-yl)-3-methylurea]",0.058 nM,2.3 nM
CC(C)c1cc(C(=O)N2CCC(n3cc(Br)c(C4CC4)n3)C2)[nH]n1 (stereo not drawn) [Example 234],0.16 nM,19 nM
CC(C)c1cc(C(=O)N2CC[C@@H](NC(=O)C3(F)CC3)C2)[nH]n1 [Example 221],0.051 nM,2.1 nM
CC(C)c1cc(C(=O)N2CCC(NC(=O)C3(O)CC3)C2)[nH]n1 (stereo not drawn) [Example 171],0.2 nM,8.6 nM
CC(C)c1cc(C(=O)N2C[C@H](NC(=O)C3CC3)[C@@H](O)C2)[nH]n1 [Example 219],0.046 nM,1.8 nM
Cc1cc(-c2cnn(Cc3ccccc3)c2)cc(C2CCN(C(=O)c3cc(C(C)C)n[nH]3)C2)n1 (stereo not drawn) [Example 69],0.11 nM,15 nM
CC(C)c1cc(C(=O)N2CC[C@@H](NC(=O)[C@H]3C[C@H]3F)C2)[nH]n1 [Example 222],0.025 nM,1.3 nM
CC(C)c1cc(C(=O)N2CCC(NC(=O)c3ccc4cc[nH]c4n3)C2)[nH]n1 (stereo not drawn) [Example 135],0.076 nM,4.9 nM

# Reference: patent US10022354B2, “Pyrrolidine amide compounds as histone demethylase inhibitors” (GENENTECH, INC., priority 2014, dated 2018)
